Test results taken from patent publication US7074789B2, “Kinase inhibitors” (Amgen Inc., priority 1999, dated 2006).

Columns and labels:
Format in all cases: biochemical
[1] = target: T1, c-Met (Homo sapiens, UniProt P08581); assay: Kinase inhibition assay (33P transfer), c-Met; details: Table 2, kinase inhibition class; read-out: Met-1
T1 construct: Kinases are expressed as either kinase domains or full length constructs; made in house
How it was run: (§1)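 Using immobilised substrate copolymers (poly(Glu,Tyr) 4:1; poly(Arg,Ser) 3:1) and [33P]ATP, purified fusion kinases were allowed to react; plates were then rinsed in 0.5% phosphoric acid and counted in a scintillation detector. Half-maximal inhibition of label transfer defines IC50.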

[2] = target: T2, Lyn (Homo sapiens, UniProt P07948); assay: Kinase inhibition assay (33P transfer), Lyn; details: Table 6, Lyn-1 kinase inhibition class
T2 construct: Kinases are expressed as either kinase domains or full length constructs; made in house
How it was run: as §1

[3] = target: T3, IGFR-1 (Homo sapiens, UniProt P08069); assay: Kinase inhibition assay (33P transfer), IGFR-1; details: Table 2, kinase inhibition class
T3 construct: Kinases are expressed as either kinase domains or full length constructs; made in house

[4] = target: T4, ErbB4 (Homo sapiens, UniProt Q15303); assay: Kinase inhibition assay (33P transfer), ErbB4; details: read-out: ErbB4-1
T4 construct: Kinases are expressed as either kinase domains or full length constructs; made in house

[5] = target: T5, AKT (Homo sapiens, UniProt Q9Y243); assay: Kinase inhibition assay (33P transfer), AKT; details: Table 2, kinase inhibition class; read-out: AKT3-1
T5 construct: Kinases are expressed as either kinase domains or full length constructs; made in house
How it was run: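 Steps: express kinase as GST or polyHistidine fusion in E. coli or High Five cells; optionally co-express or mix with regulatory polypeptides; incubate with 33P-ATP and plate-attached poly(Glu,Tyr) 4:1 or poly(Arg,Ser) 3:1; wash with 0.5% phosphoric acid; count by liquid scintillation.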

[6] = target: T6, EPHB4 (Homo sapiens, UniProt P54760); assay: Kinase inhibition assay (33P transfer), EPHB4; details: read-out: EPHB4-1
T6 construct: Kinases are expressed as either kinase domains or full length constructs; made in house
T6 sequence (P54760 16-987): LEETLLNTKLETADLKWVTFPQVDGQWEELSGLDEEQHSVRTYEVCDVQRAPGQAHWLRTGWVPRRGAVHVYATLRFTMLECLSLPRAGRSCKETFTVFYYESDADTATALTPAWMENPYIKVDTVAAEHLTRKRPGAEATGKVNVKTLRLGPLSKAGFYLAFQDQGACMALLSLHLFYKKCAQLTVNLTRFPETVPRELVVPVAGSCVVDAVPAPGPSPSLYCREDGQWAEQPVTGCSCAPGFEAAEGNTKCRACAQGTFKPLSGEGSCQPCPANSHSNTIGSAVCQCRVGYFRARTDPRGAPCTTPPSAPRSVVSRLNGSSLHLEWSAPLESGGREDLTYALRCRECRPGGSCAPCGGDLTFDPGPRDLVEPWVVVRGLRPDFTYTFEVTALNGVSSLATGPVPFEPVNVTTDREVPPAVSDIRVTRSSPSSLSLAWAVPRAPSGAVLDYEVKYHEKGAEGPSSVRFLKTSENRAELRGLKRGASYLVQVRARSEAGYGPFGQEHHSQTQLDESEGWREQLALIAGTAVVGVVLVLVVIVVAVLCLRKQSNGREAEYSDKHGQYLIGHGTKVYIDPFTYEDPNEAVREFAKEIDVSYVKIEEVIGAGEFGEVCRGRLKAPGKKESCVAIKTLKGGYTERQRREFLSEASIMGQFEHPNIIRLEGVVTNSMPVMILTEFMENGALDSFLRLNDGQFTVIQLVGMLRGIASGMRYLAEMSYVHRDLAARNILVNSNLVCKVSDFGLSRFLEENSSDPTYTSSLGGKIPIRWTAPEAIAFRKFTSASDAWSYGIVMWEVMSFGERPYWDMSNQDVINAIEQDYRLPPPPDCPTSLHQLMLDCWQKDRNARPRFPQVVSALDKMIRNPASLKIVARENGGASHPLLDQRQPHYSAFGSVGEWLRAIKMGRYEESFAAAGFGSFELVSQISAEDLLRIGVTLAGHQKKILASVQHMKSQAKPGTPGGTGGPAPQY

[7] = target: T7, ErbB2 (Homo sapiens, UniProt P04626); assay: Kinase inhibition assay (33P transfer), ErbB2; details: read-out: ErbB2-2
T7 construct: Kinases are expressed as either kinase domains or full length constructs; made in house
How it was run: as §1

[8] = target: T8, PDGFRB (Homo sapiens, UniProt P09619); assay: Kinase inhibition assay (33P transfer), PDGFRB; details: read-out: PDGFRB-1
T8 construct: Kinases are expressed as either kinase domains or full length constructs; made in house

T2 sequence (P07948 whole entry, species assumed, the tested form may be a part): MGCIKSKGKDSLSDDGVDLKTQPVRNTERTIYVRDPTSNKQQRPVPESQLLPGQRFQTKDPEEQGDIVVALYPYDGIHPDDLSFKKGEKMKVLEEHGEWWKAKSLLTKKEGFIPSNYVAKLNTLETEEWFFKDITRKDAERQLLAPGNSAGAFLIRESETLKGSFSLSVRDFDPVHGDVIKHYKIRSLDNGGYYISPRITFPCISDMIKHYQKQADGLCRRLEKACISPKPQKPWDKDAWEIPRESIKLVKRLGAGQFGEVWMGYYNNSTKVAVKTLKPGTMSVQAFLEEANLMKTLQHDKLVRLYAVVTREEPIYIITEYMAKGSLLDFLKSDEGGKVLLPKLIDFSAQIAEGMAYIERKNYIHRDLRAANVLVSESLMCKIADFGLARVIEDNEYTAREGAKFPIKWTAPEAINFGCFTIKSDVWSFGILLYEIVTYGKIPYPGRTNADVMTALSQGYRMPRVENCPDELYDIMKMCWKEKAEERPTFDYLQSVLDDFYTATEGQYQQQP
T5 sequence (Q9Y243 whole entry, the tested form may be a part): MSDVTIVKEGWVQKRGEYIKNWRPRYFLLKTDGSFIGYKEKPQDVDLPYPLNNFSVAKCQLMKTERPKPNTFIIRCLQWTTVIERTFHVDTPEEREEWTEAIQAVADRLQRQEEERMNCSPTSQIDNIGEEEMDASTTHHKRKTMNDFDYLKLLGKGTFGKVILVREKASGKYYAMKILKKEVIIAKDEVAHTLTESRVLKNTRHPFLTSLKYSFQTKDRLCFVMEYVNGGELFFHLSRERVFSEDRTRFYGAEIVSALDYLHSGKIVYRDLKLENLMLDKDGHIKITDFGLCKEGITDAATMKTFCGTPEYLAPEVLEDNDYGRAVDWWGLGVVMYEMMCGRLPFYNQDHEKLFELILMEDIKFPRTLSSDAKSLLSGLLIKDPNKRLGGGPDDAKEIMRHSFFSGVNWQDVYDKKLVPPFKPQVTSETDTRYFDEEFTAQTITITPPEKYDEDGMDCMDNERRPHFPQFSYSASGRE
T1 sequence (P08581 25-1390): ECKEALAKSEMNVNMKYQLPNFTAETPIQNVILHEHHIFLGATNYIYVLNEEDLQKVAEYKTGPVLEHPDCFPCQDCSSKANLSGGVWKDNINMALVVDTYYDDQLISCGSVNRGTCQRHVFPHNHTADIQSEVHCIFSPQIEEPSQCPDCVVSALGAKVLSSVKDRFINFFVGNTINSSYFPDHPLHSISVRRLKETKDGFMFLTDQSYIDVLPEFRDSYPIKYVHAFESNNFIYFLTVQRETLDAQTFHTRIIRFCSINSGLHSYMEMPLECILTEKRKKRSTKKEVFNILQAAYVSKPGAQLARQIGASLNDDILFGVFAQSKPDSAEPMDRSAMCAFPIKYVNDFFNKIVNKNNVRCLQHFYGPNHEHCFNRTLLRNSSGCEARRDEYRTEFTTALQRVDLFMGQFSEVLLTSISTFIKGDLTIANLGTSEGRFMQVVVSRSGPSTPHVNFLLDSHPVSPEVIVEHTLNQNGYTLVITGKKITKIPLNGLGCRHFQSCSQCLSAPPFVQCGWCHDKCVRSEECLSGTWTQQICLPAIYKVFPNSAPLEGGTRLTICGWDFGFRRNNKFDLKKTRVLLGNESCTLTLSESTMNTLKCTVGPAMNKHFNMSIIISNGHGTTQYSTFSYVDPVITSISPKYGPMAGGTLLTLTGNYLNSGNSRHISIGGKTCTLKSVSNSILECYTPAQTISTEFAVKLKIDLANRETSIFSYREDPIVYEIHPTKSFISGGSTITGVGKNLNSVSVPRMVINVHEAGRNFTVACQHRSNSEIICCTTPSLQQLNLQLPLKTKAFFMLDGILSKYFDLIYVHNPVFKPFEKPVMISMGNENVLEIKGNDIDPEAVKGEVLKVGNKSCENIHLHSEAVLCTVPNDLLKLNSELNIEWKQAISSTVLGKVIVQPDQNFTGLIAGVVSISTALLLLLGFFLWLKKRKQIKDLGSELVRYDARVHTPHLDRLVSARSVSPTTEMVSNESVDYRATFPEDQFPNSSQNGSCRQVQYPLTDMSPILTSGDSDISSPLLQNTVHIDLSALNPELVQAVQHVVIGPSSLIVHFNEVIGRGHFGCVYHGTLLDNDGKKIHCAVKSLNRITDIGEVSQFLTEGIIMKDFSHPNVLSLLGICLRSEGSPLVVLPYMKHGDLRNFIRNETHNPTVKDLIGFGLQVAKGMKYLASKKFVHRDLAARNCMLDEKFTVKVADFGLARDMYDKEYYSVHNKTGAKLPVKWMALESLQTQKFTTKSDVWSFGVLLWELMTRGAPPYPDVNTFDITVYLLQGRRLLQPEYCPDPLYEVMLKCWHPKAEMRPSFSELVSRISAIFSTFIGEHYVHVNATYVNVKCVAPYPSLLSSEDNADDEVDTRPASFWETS
T3 sequence (P08069 31-1367): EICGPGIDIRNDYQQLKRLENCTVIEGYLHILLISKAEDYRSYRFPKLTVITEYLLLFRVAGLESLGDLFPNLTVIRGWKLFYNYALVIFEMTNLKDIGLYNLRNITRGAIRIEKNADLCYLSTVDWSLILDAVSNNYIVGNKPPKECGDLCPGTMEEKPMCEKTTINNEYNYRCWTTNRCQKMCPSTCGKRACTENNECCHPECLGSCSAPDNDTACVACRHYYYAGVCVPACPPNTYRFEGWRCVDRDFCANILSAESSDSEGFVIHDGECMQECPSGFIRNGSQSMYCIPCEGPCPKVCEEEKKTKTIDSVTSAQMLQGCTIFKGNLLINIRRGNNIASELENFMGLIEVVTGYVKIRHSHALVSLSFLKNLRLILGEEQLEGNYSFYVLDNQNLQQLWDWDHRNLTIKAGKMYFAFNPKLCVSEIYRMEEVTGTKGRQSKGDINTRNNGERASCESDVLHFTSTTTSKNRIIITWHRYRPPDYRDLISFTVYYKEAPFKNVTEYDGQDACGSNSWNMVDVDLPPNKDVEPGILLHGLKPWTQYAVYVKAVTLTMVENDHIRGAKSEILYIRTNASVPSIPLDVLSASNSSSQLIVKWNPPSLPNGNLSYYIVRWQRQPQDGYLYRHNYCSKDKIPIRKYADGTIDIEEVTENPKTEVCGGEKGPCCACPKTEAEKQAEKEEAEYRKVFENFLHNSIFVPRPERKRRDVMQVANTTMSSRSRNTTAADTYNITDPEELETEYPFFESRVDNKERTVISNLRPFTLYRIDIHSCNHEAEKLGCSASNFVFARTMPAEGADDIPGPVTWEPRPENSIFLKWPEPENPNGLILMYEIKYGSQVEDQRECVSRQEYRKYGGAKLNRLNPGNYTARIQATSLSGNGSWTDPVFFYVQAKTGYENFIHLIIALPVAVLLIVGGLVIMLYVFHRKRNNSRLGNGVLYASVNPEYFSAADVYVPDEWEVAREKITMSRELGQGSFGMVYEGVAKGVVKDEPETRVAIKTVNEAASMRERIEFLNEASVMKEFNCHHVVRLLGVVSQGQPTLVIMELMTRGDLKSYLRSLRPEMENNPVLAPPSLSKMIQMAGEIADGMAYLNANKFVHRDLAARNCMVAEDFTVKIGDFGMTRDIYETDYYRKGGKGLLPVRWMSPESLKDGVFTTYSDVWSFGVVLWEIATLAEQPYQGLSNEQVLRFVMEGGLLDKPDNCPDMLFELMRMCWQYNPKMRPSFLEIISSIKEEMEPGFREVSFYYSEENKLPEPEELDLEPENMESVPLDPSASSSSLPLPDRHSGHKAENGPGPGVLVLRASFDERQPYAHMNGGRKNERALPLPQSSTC
T4 sequence (Q15303 26-1308, species assumed): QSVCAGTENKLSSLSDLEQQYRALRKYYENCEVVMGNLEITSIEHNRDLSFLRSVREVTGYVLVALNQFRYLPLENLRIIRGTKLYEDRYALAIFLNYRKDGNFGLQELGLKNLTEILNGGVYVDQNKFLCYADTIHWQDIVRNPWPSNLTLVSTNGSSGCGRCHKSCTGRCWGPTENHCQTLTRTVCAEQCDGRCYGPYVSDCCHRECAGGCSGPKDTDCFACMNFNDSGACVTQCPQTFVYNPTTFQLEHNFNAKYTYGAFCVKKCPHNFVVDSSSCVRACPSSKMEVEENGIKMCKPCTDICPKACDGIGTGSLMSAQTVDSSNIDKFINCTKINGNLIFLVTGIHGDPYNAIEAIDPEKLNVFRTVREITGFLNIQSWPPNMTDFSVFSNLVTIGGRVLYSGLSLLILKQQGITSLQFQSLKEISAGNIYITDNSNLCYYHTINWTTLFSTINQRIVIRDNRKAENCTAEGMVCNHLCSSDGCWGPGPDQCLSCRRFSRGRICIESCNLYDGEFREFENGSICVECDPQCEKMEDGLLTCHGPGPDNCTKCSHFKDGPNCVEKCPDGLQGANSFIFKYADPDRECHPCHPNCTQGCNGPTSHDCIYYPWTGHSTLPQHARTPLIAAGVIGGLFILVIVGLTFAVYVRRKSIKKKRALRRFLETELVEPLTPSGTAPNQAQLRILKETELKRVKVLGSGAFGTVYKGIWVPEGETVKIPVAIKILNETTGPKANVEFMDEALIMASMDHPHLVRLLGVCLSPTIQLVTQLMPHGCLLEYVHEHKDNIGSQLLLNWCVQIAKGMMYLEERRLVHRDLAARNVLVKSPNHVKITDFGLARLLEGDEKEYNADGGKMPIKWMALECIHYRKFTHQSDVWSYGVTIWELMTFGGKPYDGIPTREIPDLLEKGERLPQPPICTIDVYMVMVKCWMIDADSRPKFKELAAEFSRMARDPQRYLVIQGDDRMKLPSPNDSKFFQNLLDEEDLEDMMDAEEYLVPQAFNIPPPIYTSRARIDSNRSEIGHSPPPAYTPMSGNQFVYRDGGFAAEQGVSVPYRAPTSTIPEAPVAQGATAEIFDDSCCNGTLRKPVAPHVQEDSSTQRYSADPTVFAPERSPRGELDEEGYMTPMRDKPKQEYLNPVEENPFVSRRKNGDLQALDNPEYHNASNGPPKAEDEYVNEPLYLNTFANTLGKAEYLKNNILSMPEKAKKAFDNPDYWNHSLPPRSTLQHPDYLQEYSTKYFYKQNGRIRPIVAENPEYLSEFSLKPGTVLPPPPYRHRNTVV

## COc1cc(Nc2ncnc(N(c3ccc(Cl)cc3)c3nc4ccccc4[nH]3)n2)cc(OC)c1OC [Compound 374]
[1]
  IC50: 0.794 to 4.76 µM
[2]
  IC50: < 0.794 µM
[3]
  IC50: > 8.93 µM
[4]
  IC50: 0.794 to 4.76 µM
[5]
  IC50: > 8.93 µM
[6]
  IC50: < 0.794 µM

## COc1cc(Nc2ncnc(-n3c(Nc4ccc5[nH]ccc5c4)nc4ccccc43)n2)cc(OC)c1OC [Compound 376]
[7]
  IC50: 4.72 to 6.88 µM
[1]
  IC50: 4.72 to 6.88 µM
[2]
  IC50: < 0.787 µM
[3]
  IC50: 0.787 to 4.72 µM
[4]
  IC50: 6.88 to 8.85 µM
[5]
  IC50: > 8.85 µM
[6]
  IC50: 6.88 to 8.85 µM

## COc1cc(Nc2ncnc(-n3c(Nc4cccc(C(N)=O)c4)nc4ccccc43)n2)cc(OC)c1OC [Compound 377]
[1]
  IC50: 6.83 to 8.78 µM
[2]
  IC50: > 8.78 µM
[3]
  IC50: 4.68 to 6.83 µM
[4]
  IC50: > 8.78 µM
[5]
  IC50: > 8.78 µM
[6]
  IC50: 0.78 to 4.68 µM

## COc1cc(Nc2ncnc(-n3c(Cl)nc4ccccc43)n2)cc(OC)c1OC [Compound 378]
[1]
  IC50: 0.969 to 5.81 µM
[2]
  IC50: 0.969 to 5.81 µM
[3]
  IC50: 0.969 to 5.81 µM
[4]
  IC50: > 10.9 µM
[5]
  IC50: > 10.9 µM
[6]
  IC50: > 10.9 µM

## COc1cc(Nc2ncnc(-c3c(O)[nH]c4ccccc34)n2)cc(OC)c1OC [Compound 380]
[1]
  IC50: > 11.4 µM
[2]
  IC50: 1.02 to 6.1 µM
[3]
  IC50: 6.1 to 8.9 µM
[4]
  IC50: 1.02 to 6.1 µM
[5]
  IC50: > 11.4 µM
[6]
  IC50: > 11.4 µM

## COC(=O)c1cccc(Nc2nc3ccccc3n2-c2ncnc(Nc3cc(OC)c(OC)c(OC)c3)n2)c1 [Compound 383]
[7]
  IC50: 4.55 to 6.63 µM
[1]
  IC50: > 8.53 µM
[3]
  IC50: > 8.53 µM
[8]
  IC50: < 0.758 µM
[5]
  IC50: > 8.53 µM
[6]
  IC50: > 8.53 µM

## COc1cc(Nc2ncnc(-n3c(Nc4ccccc4C)nc4ccccc43)n2)cc(OC)c1OC [Compound 384]
[1]
  IC50: 7.24 to 9.31 µM
[2]
  IC50: < 0.827 µM
[3]
  IC50: > 9.31 µM
[4]
  IC50: > 9.31 µM
[5]
  IC50: > 9.31 µM
[6]
  IC50: 0.827 to 4.96 µM

## COc1cc(Nc2ncnc(-n3c(Nc4ccc(C)cc4)nc4ccccc43)n2)cc(OC)c1OC [Compound 385]
[1]
  IC50: > 9.31 µM
[2]
  IC50: 0.827 to 4.96 µM
[3]
  IC50: > 9.31 µM
[4]
  IC50: > 9.31 µM
[5]
  IC50: > 9.31 µM
[6]
  IC50: > 9.31 µM

## COc1cc(Nc2ncnc(-n3c(Nc4cccc(C)c4)nc4ccccc43)n2)cc(OC)c1OC [Compound 386]
[1]
  IC50: > 9.31 µM
[2]
  IC50: > 9.31 µM
[3]
  IC50: > 9.31 µM
[4]
  IC50: > 9.31 µM
[5]
  IC50: > 9.31 µM
[6]
  IC50: > 9.31 µM

## COc1cc(Nc2ncnc(-n3c(Nc4ccc(F)cc4)nc4ccccc43)n2)cc(OC)c1OC [Compound 387]
[1]
  IC50: 7.18 to 9.23 µM
[2]
  IC50: 0.821 to 4.92 µM
[3]
  IC50: > 9.23 µM
[4]
  IC50: > 9.23 µM
[5]
  IC50: > 9.23 µM
[6]
  IC50: > 9.23 µM

## COc1cc(Nc2ncnc(-n3c(Nc4ccc(C(C)C)cc4)nc4ccccc43)n2)cc(OC)c1OC [Compound 388]
[1]
  IC50: > 8.8 µM
[2]
  IC50: 0.782 to 4.69 µM
[3]
  IC50: > 8.8 µM
[4]
  IC50: > 8.8 µM
[5]
  IC50: > 8.8 µM
[6]
  IC50: > 8.8 µM

## COc1cc(Nc2ncnc(-n3c(Nc4cccc(C(=O)O)c4)nc4ccccc43)n2)cc(OC)c1OC [Compound 390]
[1]
  IC50: 6.82 to 8.76 µM
[2]
  IC50: 0.779 to 4.67 µM
[3]
  IC50: > 8.76 µM
[4]
  IC50: 6.82 to 8.76 µM
[5]
  IC50: 0.779 to 4.67 µM
[6]
  IC50: > 8.76 µM

## COc1cc(Nc2ncnc(Nc3cc(-c4ccccc4)nn3C)n2)cc(OC)c1OC [Compound 394]
[1]
  IC50: > 10.4 µM
[2]
  IC50: < 0.923 µM
[3]
  IC50: 0.923 to 5.54 µM
[4]
  IC50: > 10.4 µM
[5]
  IC50: > 10.4 µM
[6]
  IC50: 5.54 to 8.07 µM

## NC(=O)c1cccc(Nc2ncnc(-n3c(N)nc4ccccc43)n2)c1 [Compound 395]
[1]
  IC50: 1.15 to 6.93 µM
[2]
  IC50: 10.1 to 13 µM
[3]
  IC50: 1.15 to 6.93 µM
[4]
  IC50: > 13 µM
[5]
  IC50: 10.1 to 13 µM
[6]
  IC50: > 13 µM

## NC(=O)c1ccc(Nc2ncnc(-n3c(N)nc4ccccc43)n2)cc1 [Compound 396]
[1]
  IC50: 1.15 to 6.93 µM
[2]
  IC50: 1.15 to 6.93 µM
[3]
  IC50: < 1.15 µM
[4]
  IC50: 1.15 to 6.93 µM
[5]
  IC50: 6.93 to 10.1 µM
[6]
  IC50: 1.15 to 6.93 µM
